Data on five compounds can be found in ChEMBL document CHEMBL1153657, “2-[4-(o-methoxyphenyl)piperazin-1-ylmethyl]-1,3-dioxoperhydroimidazo[1,5-a]pyridine as a new selective 5-HT1A receptor ligand” (Bioorg Med Chem Lett, 1996).

The target of test [1] is T1, Adrenergic receptor alpha-1 (Rattus norvegicus, UniProt P15823+P23944+P43140).
T1 sequence (P15823 whole entry): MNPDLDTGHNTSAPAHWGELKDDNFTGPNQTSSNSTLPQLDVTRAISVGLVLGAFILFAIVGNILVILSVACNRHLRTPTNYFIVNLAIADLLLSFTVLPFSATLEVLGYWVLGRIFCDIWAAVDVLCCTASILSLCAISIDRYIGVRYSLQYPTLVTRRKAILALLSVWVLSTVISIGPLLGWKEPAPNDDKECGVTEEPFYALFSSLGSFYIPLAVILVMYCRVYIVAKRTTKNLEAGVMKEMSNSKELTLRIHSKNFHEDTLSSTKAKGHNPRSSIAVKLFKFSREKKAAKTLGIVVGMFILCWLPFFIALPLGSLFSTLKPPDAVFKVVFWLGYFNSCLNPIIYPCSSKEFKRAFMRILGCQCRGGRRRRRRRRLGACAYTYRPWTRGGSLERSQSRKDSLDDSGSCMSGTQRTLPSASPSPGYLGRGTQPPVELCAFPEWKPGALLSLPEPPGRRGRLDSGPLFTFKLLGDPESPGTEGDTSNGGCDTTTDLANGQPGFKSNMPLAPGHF
T1 sequence (P23944 whole entry): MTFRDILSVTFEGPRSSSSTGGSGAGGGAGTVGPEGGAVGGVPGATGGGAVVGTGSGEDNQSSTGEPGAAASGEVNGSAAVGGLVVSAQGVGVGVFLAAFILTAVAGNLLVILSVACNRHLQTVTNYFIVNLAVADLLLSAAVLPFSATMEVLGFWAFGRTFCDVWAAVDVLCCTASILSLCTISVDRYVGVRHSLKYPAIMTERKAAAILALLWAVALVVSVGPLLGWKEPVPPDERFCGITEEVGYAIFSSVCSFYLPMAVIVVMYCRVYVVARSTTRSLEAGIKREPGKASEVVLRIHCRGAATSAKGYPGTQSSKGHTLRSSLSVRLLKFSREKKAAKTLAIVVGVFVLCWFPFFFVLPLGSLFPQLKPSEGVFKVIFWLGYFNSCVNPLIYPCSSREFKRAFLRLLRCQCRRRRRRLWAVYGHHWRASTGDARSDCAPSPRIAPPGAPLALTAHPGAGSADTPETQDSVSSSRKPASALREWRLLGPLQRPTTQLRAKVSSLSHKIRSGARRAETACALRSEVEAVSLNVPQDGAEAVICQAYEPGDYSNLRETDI
T1 sequence (P43140 whole entry): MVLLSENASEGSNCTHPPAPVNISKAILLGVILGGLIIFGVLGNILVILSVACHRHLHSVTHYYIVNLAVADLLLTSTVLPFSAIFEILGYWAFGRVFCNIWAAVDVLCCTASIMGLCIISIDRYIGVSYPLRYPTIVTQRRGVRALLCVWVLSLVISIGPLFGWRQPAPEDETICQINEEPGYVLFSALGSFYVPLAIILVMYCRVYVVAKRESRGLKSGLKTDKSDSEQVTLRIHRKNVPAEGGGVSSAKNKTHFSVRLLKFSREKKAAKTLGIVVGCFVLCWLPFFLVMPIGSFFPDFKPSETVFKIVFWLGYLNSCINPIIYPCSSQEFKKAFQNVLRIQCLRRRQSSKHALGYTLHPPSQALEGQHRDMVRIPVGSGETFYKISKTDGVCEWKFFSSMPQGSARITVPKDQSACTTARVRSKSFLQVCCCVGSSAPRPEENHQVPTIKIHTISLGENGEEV
Description: Binding affinity at Alpha-1 adrenergic receptor in rat cerebral cortex membranes by [3H]prazosin displacement. Format: cell membranes, Membrane.

Test [2] addresses T2, 5-hydroxytryptamine receptor 1A (Rattus norvegicus, UniProt P19327).
T2 sequence (P19327 whole entry): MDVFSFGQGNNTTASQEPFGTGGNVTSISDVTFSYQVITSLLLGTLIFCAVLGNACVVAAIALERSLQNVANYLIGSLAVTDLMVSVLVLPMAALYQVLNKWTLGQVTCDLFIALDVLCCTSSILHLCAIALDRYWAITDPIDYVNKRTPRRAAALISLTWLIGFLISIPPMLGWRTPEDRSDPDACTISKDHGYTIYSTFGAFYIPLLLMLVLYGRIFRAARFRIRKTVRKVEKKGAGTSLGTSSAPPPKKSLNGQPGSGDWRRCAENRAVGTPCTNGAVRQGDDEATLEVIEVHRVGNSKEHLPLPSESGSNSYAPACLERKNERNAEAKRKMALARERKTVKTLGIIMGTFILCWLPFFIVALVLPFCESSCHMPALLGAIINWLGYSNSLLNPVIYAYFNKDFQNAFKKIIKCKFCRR
Description: Compound was evaluated for its ability to displace [3H]8-OH-DPAT from serotonin 5-hydroxytryptamine 1A receptor in rat cerebral cortex membranes. Type of test: cell membranes, Membrane.

The target of test [3] is 5-hydroxytryptamine receptor 2A (Rattus norvegicus, UniProt P14842). Description: Compound was evaluated for binding affinity against 5-hydroxytryptamine 2A receptor using [3H]ketanserin as a radioligand.
Chain of 5-hydroxytryptamine receptor 2A (P14842 whole entry): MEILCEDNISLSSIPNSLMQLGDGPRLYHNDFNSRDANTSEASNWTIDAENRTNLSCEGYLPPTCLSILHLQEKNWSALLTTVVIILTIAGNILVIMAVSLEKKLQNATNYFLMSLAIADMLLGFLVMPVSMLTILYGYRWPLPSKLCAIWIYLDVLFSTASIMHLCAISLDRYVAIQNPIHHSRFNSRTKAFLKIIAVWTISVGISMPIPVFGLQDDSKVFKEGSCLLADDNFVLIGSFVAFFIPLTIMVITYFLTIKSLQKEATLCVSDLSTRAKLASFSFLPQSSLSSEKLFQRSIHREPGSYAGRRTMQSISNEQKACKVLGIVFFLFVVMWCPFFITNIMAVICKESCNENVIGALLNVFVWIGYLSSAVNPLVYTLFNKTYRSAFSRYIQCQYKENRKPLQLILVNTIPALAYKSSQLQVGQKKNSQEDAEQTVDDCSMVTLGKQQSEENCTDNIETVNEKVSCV

As usually defined, the Ki is a measure of affinity in units of concentration, obtained from inhibition or displacement. Consider `COc1ccccc1N1CCN(CCN2C(=O)c3ccccc3C2=O)CC1`, for which the Ki in test [1] was 130 nM. In other words, the sub-micromolar range.

`COc1ccccc1N1CCN(CCCN2C(=O)c3ccccc3C2=O)CC1` returned a Ki in test [1] of 33 nM.

A word on the IC50: it is the concentration needed to halve the response being measured. A high value points to weaker potency in that assay. In test [2], `COc1ccccc1N1CCN(CCCCN2C(=O)CC3(CCCC3)CC2=O)CC1` returned an IC50 of 2 nM.

`COc1ccccc1N1CCN(CN2C(=O)C3CCCCN3C2=O)CC1` (stereo not given): the Ki in test [3] is 1000 nM.

Turning to `COc1ccccc1N1CCN(CCCN2C(=O)CC3(CCCC3)CC2=O)CC1`, in test [2], the IC50 is 80 nM.
